Measurements reported in US12091425B2 (AMGEN INC., priority 2016, dated 2024).

Experiments:
[1] = target: T1, Mcl-1/Bim interaction, recombinant human Mcl-1 (171-327) (Homo sapiens, UniProt Q07820); assay: Cell free Mcl-1: Bim Affinity Assay (Mcl-1 HTRF); assay type: binding
T1 construct: made in house
How it was run: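 TR-FRET competition assay with biotinylated human Bim peptide (residues 51-76); reaction plates incubated overnight before reading. IC50 values came from duplicate data fitted to a four-parameter sigmoidal competition curve.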

[2] = system: OPM-2 human multiple myeloma cell line; assay: Cell Viability Assay (OPM-2 10 FBS); assay type: cell-based; details: OPM-2 cells, CellTiter-Glo
How it was run: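 IC50 from 4-parameter logistic fit of CellTiter-Glo luminescence. 3000 cells/well, 10% FBS medium, serial compound dilutions, 16 h, 37 °C/5% CO2; read 25 min post-reagent.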

[3] = TR-FRET, 0.1 nM Mcl-1 (171-327), 0.05 nM biotin-Bim (51-76)
[4] = cell free Mcl-1:Bim TR-FRET, recombinant human Mcl-1 (171-327)
[5] = Homo sapiens, OPM-2, 16 h, 16 h

T1 sequence (Q07820 171-327): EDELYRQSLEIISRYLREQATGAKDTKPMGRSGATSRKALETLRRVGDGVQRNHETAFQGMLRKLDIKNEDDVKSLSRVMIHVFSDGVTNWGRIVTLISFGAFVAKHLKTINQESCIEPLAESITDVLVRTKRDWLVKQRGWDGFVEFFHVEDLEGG

Row | IC50 [1, 3] | IC50 ([2]; Homo sapiens, OPM-2, 16 h, 16 h incubation) | IC50 [1, 4] | IC50 [2, 5] | SMILES | IC50 ([2]; 16 h)
1 | 0.267 nM | 329 nM | – | – | C[C@@H]1C[C@@H](C)/C=C/[C@H](O)[C@@H]2CC[C@H]2CN2C[C@@]3(CCCc4cc(Cl)ccc43)COc3ccc(cc32)C(=O)NS1(=O)=O [Example 1014, (1S,3′R,6′R,7′S,8′E,10′R,12′R)-6-chloro-7′-hydroxy-10′,12′-dimethyl-3,4-dihydro-2H,15′H-spiro[naphthalene-1,22′-[20]oxa[13]thia[1,14]diazatetracyclo[14.7.2.0^3,6.0^19,24]pentacosa [8,16,18,24]tetraen]-15′-one 13′,13′-dioxide] | –
2 | 0.701 nM | – | – | 2160 nM | CC1CC(N(C)C)CC(O)C2CCC2CN2CC3(CCCc4cc(Cl)ccc43)COc3ccc(cc32)C(=O)NS(=O)(=O)C1C (single isomer, unassigned) [Example 248] | –
3 | – | – | 1.12 nM | – | COC(=O)CC[C@]1(C)CC/C=C\[C@H](O)[C@@H]2CC[C@H]2CN2C[C@@]3(CCCc4cc(Cl)ccc43)COc3ccc(cc32)C(=O)NS1(=O)=O (single isomer, unassigned) [Example 562] | 986 nM
4 | – | – | 0.366 nM | 117 nM | COCCO[C@H]1/C=C/C[C@H](C)[C@@H](C)S(=O)(=O)NC(=O)c2ccc3c(c2)N(C[C@@H]2CC[C@H]21)C[C@@]1(CCCc2cc(Cl)ccc21)CO3 [Example 719, (1S,3′R,6′R,7′S,8′E,11′S,12′R)-6-chloro-7′-(2-methoxyethoxy)-11′,12′-dimethyl-3,4-dihydro-2H,15′H-spiro[naphthalene-1,22′-[20]oxa[13]thia[1,14]diazatetracyclo[14.7.2.0^3,6.0^19,24]pentacosa[8,16,18,24]tetraen]-15′-one-13′, 13′-dioxide] | –
5 | 2.54 nM | – | – | 3730 nM | CC1CCCS(=O)(=O)NC(=O)c2ccc3c(c2)N(CC2CCC2C(O)C1)CC1(CCCc2cc(Cl)ccc21)CO3 (single isomer, unassigned) [Example 240] | –
6 | – | – | 0.537 nM | 282 nM | COC1C=CCC(OC)C(CC2CCCO2)S(=O)(=O)NC(=O)c2ccc3c(c2)N(CC2CCC21)CC1(CCCc2cc(Cl)ccc21)CO3 (single isomer, unassigned) [Example 641] | –
7 | 3.05 nM | – | – | – | C[C@H]1CCCS(=O)(=O)NC(=O)c2ccc3c(c2)N(C[C@@H]2CC[C@H]2[C@@H](O)C1)C[C@@]1(CCCc2cc(Cl)ccc21)CO3 (single isomer, unassigned) [Example 242] | 467 nM
8 | 0.806 nM | – | – | 1080 nM | O=C1NS(=O)(=O)N(CC2CCCO2)CCC=CC(O)C2CCC2CN2CC3(CCCc4cc(Cl)ccc43)COc3ccc1cc32 (stereo not drawn) [Example 21] | –
9 | 0.728 nM | – | – | 1660 nM | COCCCN1[C@@H](C)C/C=C\[C@H](O)[C@@H]2CC[C@H]2CN2C[C@@]3(CCCc4cc(Cl)ccc43)COc3ccc(cc32)C(=O)NS1(=O)=O (single isomer, unassigned) [Example 73] | –
10 | – | – | 0.329 nM | 1540 nM | N#CCC[C@@H]1CC/C=C/[C@H](O)[C@@H]2CC[C@H]2CN2C[C@@]3(CCCc4cc(Cl)ccc43)COc3ccc(cc32)C(=O)NS1(=O)=O (single isomer, unassigned) [Example 613] | –
11 | 3.81 nM | – | – | 2660 nM | CCOC(=O)CO[C@@H]1/C=C/CCCS(=O)(=O)NC(=O)c2ccc3c(c2)N(C[C@@H]2CC[C@H]21)C[C@@]1(CCCc2cc(Cl)ccc21)CO3 [Example 217, ethyl(((1S,3′R,6′R,7′R,8′E)-6-chloro-13′,13′-dioxido-15′-oxo-3,4-dihydro-2H-spiro[naphthalene-1,22′-[20]oxa[13]thia[1,14]diazatetracyclo[14.7.2.0^3,6.0^19,24]pentacosa [8,16,18,24]tetraen]-7′-yl)oxy)acetate] | –
12 | 0.462 nM | – | – | 971 nM | O=C1NS(=O)(=O)N(CC2COC2)CC/C=C/[C@H](O)[C@@H]2CC[C@H]2CN2C[C@@]3(CCCc4cc(Cl)ccc43)COc3ccc1cc32 [Example 40, (1S,3′R,6′R,7′S,8′E)-6-chloro-7′-hydroxy-12′-(3-oxetanylmethyl)-3,4-dihydro-2H,15′H-spiro[naphthalene-1,22′-[20]oxa[13]thia[1,12,14]triazatetracyclo[14.7.2.0^3,6.0^19,24]pentacosa[8,16,18,24]tetraen]-15′-one 13′,13′-dioxide] | –
13 | 0.109 nM | – | – | 792 nM | C[C@@H]1[C@@H](C)C/C=C/[C@H](OCC(=O)N2CC[C@H](O)C2)[C@@H]2CC[C@H]2CN2C[C@@]3(CCCc4cc(Cl)ccc43)COc3ccc(cc32)C(=O)NS1(=O)=O [Example 310, (1S,3′R,6′R,7′S,8′E,11′S,12′R)-6-chloro-7′-(2-((3S)-3-hydroxy-1-pyrrolidinyl)-2-oxoethoxy)-11′,12′-dimethyl-3,4-dihydro-2H,15′H-spiro[naphthalene-1,22′-[20]oxa[13]thia[1,14]diazatetracyclo[14.7.2.0^3,6.0^19,24]pentacosa [8,16,18,24]tetraen]-15′-one 13′,13′-dioxide] | –

The next lines start with the compound.

Row | SMILES | IC50 [1, 3] | IC50 ([2]; Homo sapiens, OPM-2, 16 h, 16 h incubation) | IC50 [1, 4] | IC50 [2, 5] | IC50 ([2]; 16 h)
14 | Cc1nc(CN(Cc2noc(C)n2)[C@H]2/C=C/CC[C@@H](C)S(=O)(=O)NC(=O)c3ccc4c(c3)N(C[C@@H]3CC[C@H]32)C[C@@]2(CCCc3cc(Cl)ccc32)CO4)no1 [Example 602, (1S,3′R,6′R,7′S,8′E,12′R)-7′-(bis((5-methyl-1,2,4-oxadiazol-3-yl)methyl)amino)-6-chloro-12′-methyl-3,4-dihydro-2H,15′H-spiro[naphthalene-1,22′-[20]oxa[13]thia[1,14]diazatetracyclo[14.7.2.0^3,6.0^19,24]pentacosa [8,16,18,24]tetraen]-15′-one 13′,13′-dioxide] | – | – | 1.74 nM | 727 nM | –
15 | C[C@@H]1[C@@H](C)C/C=C/[C@H](OCCNc2ccccc2)[C@@H]2CC[C@H]2CN2C[C@@]3(CCCc4cc(Cl)ccc43)COc3ccc(cc32)C(=O)NS1(=O)=O [Example 11, (1S,3′R,6′R,7′S,8′E,11′S,12′R)-6-chloro-11′,12′-dimethyl-7′-(2-(phenylamino)ethoxy)-3,4-dihydro-2H,15′H-spiro[naphthalene-1,22′-[20]oxa[13]thia[1,14]diazatetracyclo[14.7.2.0^3,6.0^19,24]pentacosa[8,16,18,24]tetraen]-15′-one 13′,13′-dioxide] | 5.22 nM | – | – | 3650 nM | –
16 | CO[C@H]1/C=C/C[C@@H]2C[C@H]2S(=O)(=O)NC(=O)c2ccc3c(c2)N(C[C@@H]2CC[C@H]21)C[C@@]1(CCCc2cc(Cl)ccc21)CO3 (single isomer, unassigned) [Example 803] | – | – | 1.06 nM | – | 804 nM
17 | CC[C@H]1C/C=C/[C@H](O)[C@@H]2CC[C@H]2CN2C[C@@]3(CCCc4cc(Cl)ccc43)COc3ccc(cc32)C(=O)NS(=O)(=O)N1 (single isomer, unassigned) [Example 685] | – | – | 2.66 nM | – | 7180 nM
18 | O=C1NS(=O)(=O)CCC/C=C/[C@@H](OCc2nccs2)[C@@H]2CC[C@H]2CN2C[C@@]3(CCCc4cc(Cl)ccc43)COc3ccc1cc32 [Example 216, (1S,3′R,6′R,7′R,8′E)-6-chloro-7′-(1,3-thiazol-2-ylmethoxy)-3,4-dihydro-2H,15′H-spiro[naphthalene-1,22′-[20]oxa[13]thia[1,14]diazatetracyclo[14.7.2.0^3,6.0^19,24]pentacosa [8,16,18,24]tetraen]-15′-one 13′,13′-dioxide] | 9.77 nM | – | – | 26200 nM | –
19 | CC1CC(=O)N(C)CC2CCC2CN2CC3(CCCc4cc(Cl)ccc43)COc3ccc(cc32)C(=O)NS(=O)(=O)C1C (single isomer, unassigned) [Example 152] | 19.6 nM | – | – | 29200 nM | –
20 | O=C1NS(=O)(=O)C(Cc2ccc(Br)cc2)CCC=CC(O)C2CCC2CN2CC3(CCCc4cc(Cl)ccc43)COc3ccc1cc32 (single isomer, unassigned) [Example 633] | – | – | 23.1 nM | – | 17800 nM
21 | CO[C@H]1/C=C\CC[C@@H](C[C@@H](C)O)S(=O)(=O)NC(=O)c2ccc3c(c2)N(C[C@@H]2CC[C@H]21)C[C@@]1(CCCc2cc(Cl)ccc21)CO3 (single isomer, unassigned) [Example 543] | – | – | 0.535 nM | – | 699 nM
22 | C[C@@H]1[C@@H](C)C/C=C/[C@H](OCC(=O)N2CC(N3CCCC3)C2)[C@@H]2CC[C@H]2CN2C[C@@]3(CCCc4cc(Cl)ccc43)COc3ccc(cc32)C(=O)NS1(=O)=O [Example 309, (1S,3′R,6′R,7′S,8′E,11′S,12′R)-6-chloro-11′,12′-dimethyl-7′-(2-oxo-2-(3-(1-pyrrolidinyl)-1-azetidinyl)ethoxy)-3,4-dihydro-2H,15′H-spiro[naphthalene-1,22′-[20]oxa[13]thia[1,14]diazatetracyclo[14.7.2.0^3,6.0^19,24]pentacosa [8,16,18,24]tetraen]-15′-one 13′,13′-dioxide] | 0.0805 nM | – | – | 414 nM | –
23 | CO[C@H]1/C=C/CC[C@@H](CCS(=O)(=O)C(C)(C)C)S(=O)(=O)NC(=O)c2ccc3c(c2)N(C[C@@H]2CC[C@H]21)C[C@@]1(CCCc2cc(Cl)ccc21)CO3 (single isomer, unassigned) [Example 156] | 0.831 nM | – | – | – | 266 nM
24 | CO[C@H]1/C=C/C[C@@H]2CN(C(C)=O)C[C@H]2S(=O)(=O)NC(=O)c2ccc3c(c2)N(C[C@@H]2CC[C@H]21)C[C@@]1(CCCc2cc(Cl)ccc21)CO3 (single isomer, unassigned) [Example 340] | 0.19 nM | – | – | – | 941 nM
